From patent US12686846B2, “Plant sweet and yeast MSF transporter capable of transporting different sugars simultaneously” (THE BOARD OF TRUSTEES OF THE UNIVERSITY OF ILLINOIS, priority 2020, dated 2026)

Tests used:
[1] = biological target: T1, Lipomyces starkeyi LST1_205437 transporter, wild type, SEQ ID NO: 4 (Lipomyces starkeyi, UniProt A0A1E3QE37); assay: C14 labeled sugar uptake assay (zero-trans influx), SR8D8 expressing LST1_205437; assay type: cell-based; conditions: initial glucose uptake (5 s), 30° C., pH 6.5; cell wet weight; ± SEM
T1 construct: whole-cell 14C sugar uptake
T1 sequence (A0A1E3QE37 1-603): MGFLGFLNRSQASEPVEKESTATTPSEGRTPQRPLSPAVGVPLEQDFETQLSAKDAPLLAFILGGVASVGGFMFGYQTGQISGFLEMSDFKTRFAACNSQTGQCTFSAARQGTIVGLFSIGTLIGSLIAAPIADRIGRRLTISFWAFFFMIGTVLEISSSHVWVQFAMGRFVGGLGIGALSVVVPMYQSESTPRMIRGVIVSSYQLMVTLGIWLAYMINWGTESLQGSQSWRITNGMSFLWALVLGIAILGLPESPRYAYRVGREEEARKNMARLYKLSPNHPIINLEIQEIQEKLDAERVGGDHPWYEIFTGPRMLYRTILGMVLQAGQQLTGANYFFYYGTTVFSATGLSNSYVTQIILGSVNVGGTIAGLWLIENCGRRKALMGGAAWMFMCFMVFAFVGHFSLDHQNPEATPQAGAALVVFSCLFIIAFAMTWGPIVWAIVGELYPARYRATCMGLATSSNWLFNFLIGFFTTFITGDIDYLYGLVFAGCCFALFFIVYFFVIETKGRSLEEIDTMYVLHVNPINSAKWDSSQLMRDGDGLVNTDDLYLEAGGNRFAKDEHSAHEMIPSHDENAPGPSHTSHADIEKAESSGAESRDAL
Method: (§1) FIG. 7A illustrates sugar uptake kinetics by SR8D8. FIG. 7B illustrates sugar uptake kinetics by SR8D8 expressing AtSWEET1. FIG. 7C illustrates sugar uptake kinetics by SR8D8 expressing ScGal2. FIG. 7D illustrates sugar uptake kinetics by SR8D8 expressing AtSWEET7. FIG. 7E illustrates sugar uptake kinetics by SR8D8 expressing LST1_205437. Initial xylose uptake (20 s) was measured at 30° C. over a concentration range of 1 to 500 mM xylose. FIG. 7F illustrates sugar uptake kinetics by SR8D8. FIG. 7G illustrates sugar uptake kinetics by SR8D8 expressing AtSWEET1. FIG. 7H illustrates sugar uptake kinetics by SR8D8 expressing ScGal2. FIG. 7I illustrates sugar uptake kinetics by SR8D8 expressing AtSWEET7. FIG. 7J illustrates sugar uptake kinetics by SR8D8 expressing LST1_205437. Initial glucose uptake (5 s) was measured at 30° C. over a concentration range of 0.2 to 100 mM glucose. Curve fitting for Michaelis-Menten kinetics was applied to data of three independent measurements at each concentration.
(§2) A xylose fermenting S. cerevisiae yeast (SR8) with HXT1-7Δ, GAL2Δ deletions was used for transporter screening and characterization (SR8D8). SR8D8 was grown in YPE medium/plate (10 g/L yeast extract, 20 g/L peptone, and 5 g/L ethanol). […] Biomass was calculated from the OD600 measured using a Biomate 5 UV-visible spectrophotometer (Fisher, NY, USA). All growth rates were measured using a Bioscreen C plate reader system (Growth Curves USA, Piscataway, NJ, USA). […]
SR8D8 containing the respective plasmid was grown on selective YPE medium to an OD600 of 1-1.5, harvested by centrifugation, and washed twice in ice-cold uptake buffer (100 mM potassium phosphate, pH 6.5). […] Radioactivity was analyzed in a Beckman-Coulter LS6500 multi-purpose liquid scintillation counter (Beckman-Coulter, CA, USA).
Uptake was measured at sugar concentrations 0.2, 1, 5, 25, and 100 mM for glucose and 1, 5, 25, 66, 100, 200, and 500 mM for xylose. Inhibition of xylose uptake by glucose was measured at 25, 66, and 100 mM xylose with additional 25 and 100 mM unlabeled glucose.

[2] = biological target: T2, Arabidopsis thaliana AtSWEET1 transporter, wild type, SEQ ID NO: 1 (Arabidopsis thaliana, UniProt Q8L9J7); assay: C14 labeled sugar uptake assay, SR8D8 expressing AtSWEET1; assay type: cell-based; conditions: in words; FIGS. 7B and 7D legend: FIG. 7G
T2 construct: whole-cell 14C sugar uptake
T2 sequence (Q8L9J7 1-247): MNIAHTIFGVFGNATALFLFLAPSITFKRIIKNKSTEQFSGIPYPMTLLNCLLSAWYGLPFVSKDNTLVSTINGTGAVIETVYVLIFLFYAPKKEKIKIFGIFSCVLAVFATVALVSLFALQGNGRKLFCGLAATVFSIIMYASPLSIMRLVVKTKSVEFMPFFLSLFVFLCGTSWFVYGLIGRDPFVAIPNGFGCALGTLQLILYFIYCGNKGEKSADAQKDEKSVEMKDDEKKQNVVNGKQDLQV
Method: as §1, with “Curve fitting for Michaelis-Menten kinetics was applied to data of three independent measurements at each concentration.” left out
as §2, with “(SR8D8).” for “(SR8D8). SR8D8 was grown in YPE medium/plate (10 g/L yeast extract, 20 g/L peptone, and 5 g/L ethanol).”
Uptake was measured at sugar concentrations 0.2, 1, 5, 25, and 100 mM for glucose and 1, 5, 25, 66, 100, 200, and 500 mM for xylose. […]

In the case of OC[C@H]1OC(O)[C@H](O)[C@@H](O)[C@@H]1O (some centres unmarked) [Glucose], the “Vmax (glucose)” value [1] is reported as 47.0 ± 2.6 nmol/min/mg and the glucose transport kinetics [2] is reported as “transports glucose more efficiently as compared to AtSWEET7”.
